Test results from PMC7036849, “Development of Coumarin-Based Hydroxamates as Histone Deacetylase Inhibitors with Antitumor Activities” (Molecules, 2020).
One block for each compound: values may come before it.

Tests used:
HDAC1 = HDAC1 (Homo sapiens, UniProt Q13547); test: HDAC1 inhibitory assay (Boc-Lys(Ac)-AMC substrate); format: biochemical; details: n ≥ 3, SD <20% of the mean; read-out: IC50 against HDAC1
Description: The enzyme inhibitory assay was conducted by Shanghai ChemPartner Corporation (Shanghai, China). […] Then the lysine developer was added to terminate the reaction, and the samples were further incubated at 37 °C for 30 min. […] Three independent experiments with triplicate were carried out.

acetyl-histone H3 = test: Western blot analysis, acetyl-histone H3; format: cell-based, human; details: MDA-MB-231, 1, 2 and 5 µM, 48 h
Description: (§1) Based on the aforementioned results, western blot analysis was further performed by immunoblotting assay (β-actin as the negative control).
(§2) Briefly, MDA-MB-231 cells were lysed in lysis buffer (50 mM Tris-HCl pH 8.0, 5 mM EDTA, 100 mM NaCl, 0.5% NP-40, 1 mM PMSF) and then centrifuged for 10 min at 12,000 r, and the insoluble debris was discarded. Cell lysates were further analyzed with SDS-PAGE and western blotting with indicated antibodies. After treatment with 13a and 13c for indicated times, cells were harvested with RIPA buffer (150 mM sodium chloride, 1% Triton X-100, 0.5% sodium deoxycholate, 0.1% SDS, 50 mM Tris and cocktails of protease and phosphatase inhibitors) for 10 min at room temperature and boiled for another 10 min. Equal amounts of total proteins (35 μg) underwent 15% SDS-PAGE and were electroblotted onto the polyvinylidene difluoride (PVDF) membrane. The membrane was blocked with 5% (w/v) fat-free dry milk in PBS-Tween 20 (PBST; 0.05%) for 1 h and incubated with primary antibody (1:1000 in PBST) at 4 °C overnight. […] The relative quantity of proteins was analyzed via the Image J software (NIH, Bethesda, MD, USA).
(§3) (B) Quantitative analysis. The relative levels of Ac-H3 and Ac-H4 used to control β-actin were determined by densimetric scanning.

MDA-MB-231 cells [1] = test: Cell cycle arrest analysis (PI, flow cytometry); details: for cell cycle arrest: MDA-MB-231
Description: After 24 h of cell cycle treatment, the cells were washed three times with PBS, and the cell suspension was collected, centrifuged again, and then added to an ethanol fixative (70%) and placed in a refrigerator for overnight storage. After washing, the dye was added and stained with PI containing RNaseA solution for 30 min at 37 °C, and then analyzed by FACS.

[2] = tested on: human lung epithelial cells (Beas-2B); test: Antiproliferative activity against normal cells, Beas-2B; format: cell-based; details: read-out: Antiproliferative IC50 Beas-2B
From the text: (§4) Two normal cell lines were selected: human lung epithelial cells (Beas-2B) and human liver epithelial cells (L-02).

[3] = tested on: human liver epithelial cells (L-02); test: Antiproliferative activity against normal cells, L-02; format: cell-based; details: Epithelial cell, read-out: Antiproliferative IC50 L-02
From the text: as §4

MDA-MB-231 cells [4] = test: Apoptosis analysis (annexin V, flow cytometry); details: 48 h
Description: Briefly, cell apoptosis analysis was measured by annexin V FITC/PI assay using Annexin v-PE/7-AAD Apoptosis Detection kit (BD). […] After 48 h, the drug-treated cells were washed three times with PBS; the cell suspension was collected and centrifuged; and the supernatant was removed.

acetyl-histone H4 = test: Western blot analysis, acetyl-histone H4; format: cell-based, human; details: MDA-MB-231, 1, 2 and 5 µM, 48 h
Description: as §1, §2, §3

MDA-MB-231 cells [5] = test: Colony formation assay; details: MDA-MB-231, seven days, compared with SAHA
Description: One week after the addition of the drugs, the medium was removed. The cells were then washed three times with PBS and fixed in methanol for 5 min. The cells were lastly stained with 1% crystal violet (Beyotime) for 15 min and washed with PBS. Images were collected using a scanning apparatus (Canon, Tokyo, Japan).

H157 = test: SRB antiproliferative assay, H157; format: cell-based; details: Homo sapiens, NCI-H157, 48 h, read-out: IC50 H157
Description: Cancer cells (6 × 10^3 per well) were inoculated into 96-well plates. The treatment was carried out for 48 h, followed by SRB staining, and the absorption value was measured at 540 nm by a microplate reader. SAHA was used as a positive control, and the independent experiment was performed three times.

MCF-7 = test: SRB antiproliferative assay, MCF-7; format: cell-based; details: Homo sapiens, MCF7, 48 h, read-out: IC50 MCF-7
Description: (§5) Cancer cells (6 × 10^3 per well) were inoculated into 96-well plates. The treatment was carried out for 48 h, followed by SRB staining, and the absorption value was measured at 540 nm by a microplate reader.

A549 = test: SRB antiproliferative assay, A549; format: cell-based; details: Homo sapiens, A549, 48 h, read-out: IC50 A549
Description: as §5

MDA-MB-231 = test: SRB antiproliferative assay, MDA-MB-231; format: cell-based; details: Homo sapiens, MDA-MB-231, 48 h, read-out: IC50 MDA-MB-231
Description: as §5

solid tumor cell lines = test: Antiproliferative activity, summary over tumor cell lines; format: cell-based; details: Homo sapiens, read-out: IC50 values against solid tumor cell lines (range)
Description: as §5

Chain of HDAC1 (Q13547 whole entry): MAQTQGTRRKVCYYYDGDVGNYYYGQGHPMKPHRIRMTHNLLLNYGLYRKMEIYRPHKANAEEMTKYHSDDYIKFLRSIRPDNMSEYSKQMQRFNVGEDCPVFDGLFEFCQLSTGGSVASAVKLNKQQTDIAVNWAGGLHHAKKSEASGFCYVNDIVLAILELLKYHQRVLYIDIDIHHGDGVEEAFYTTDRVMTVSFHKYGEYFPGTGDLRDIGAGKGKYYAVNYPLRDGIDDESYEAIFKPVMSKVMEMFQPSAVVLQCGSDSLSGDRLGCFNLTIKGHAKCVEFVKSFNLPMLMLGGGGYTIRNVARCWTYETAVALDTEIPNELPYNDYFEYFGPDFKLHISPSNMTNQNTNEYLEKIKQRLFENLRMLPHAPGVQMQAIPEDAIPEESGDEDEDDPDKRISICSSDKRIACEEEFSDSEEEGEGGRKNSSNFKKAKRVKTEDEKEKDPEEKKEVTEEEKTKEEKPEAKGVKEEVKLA

IC50 (HDAC1): 2.95 nM
SMILES: Cc1cccc(COc2ccc3c(OCCCCCCCC(=O)NO)cc(=O)oc3c2)c1 [Compound 14q, N-Hydroxy-8-((7-((3-methylbenzyl)oxy)-2-oxo-2H-chromen-4-yl)oxy)octanoic acid]

IC50 (HDAC1): 1.56 nM
SMILES: Cc1ccccc1COc1ccc2c(OCCCCCCCC(=O)NO)cc(=O)oc2c1 [Compound 14p, N-Hydroxy-8-((7-((2-methylbenzyl)oxy)-2-oxo-2H-chromen-4-yl)oxy)octanoic acid]

IC50 (HDAC1): 2.4 nM
SMILES: O=C(CCCCCCCOc1cc(=O)oc2cc(OCc3ccccc3Cl)ccc12)NO [Compound 14h, N-Hydroxy-8-((7-((2-chlorobenzyl)oxy)-2-oxo-2H-chromen-4-yl)oxy)octanoic acid]

IC50 (HDAC1): 2.52 nM
SMILES: O=C(CCCCCCCOc1cc(=O)oc2cc(OCc3ccc(Cl)cc3)ccc12)NO [Compound 14j, N-Hydroxy-8-((7-((4-chlorobenzyl)oxy)-2-oxo-2H-chromen-4-yl)oxy)octanoic acid]

IC50 (HDAC1): 5.01 nM
SMILES: O=C(CCCCCCCOc1cc(=O)oc2cc(OCC3CCCCC3)ccc12)NO [Compound 13g]

SMILES: CCCOc1ccc2c(OCCCCCCCC(=O)NO)cc(=O)oc2c1 [Compound 13a, N-Hydroxy-8-((2-oxo-7-propoxy-2H-benzopyran-4-yl)oxy)octanoic acid]
acetylation level of histone H3 (acetyl-histone H3): increased the acetylation levels of histone H3 and H4 in a clearly dose-dependent manner
cell cycle arrest (MDA-MB-231 cells [1]): arrested MDA-MB-231 cells in a dose-dependent manner
IC50 [2]: > 50000 nM
IC50 [3]: > 50000 nM
cell apoptosis (MDA-MB-231 cells [4]; MDA-MB-231, 1 µM): 13.24%
cell apoptosis (MDA-MB-231 cells [4]; MDA-MB-231, 2 µM): 18.01%
acetylation level of histone H4 (acetyl-histone H4): increased the acetylation levels of histone H3 and H4 in a clearly dose-dependent manner
inhibition of colony formation (MDA-MB-231 cells [5]): significant inhibition of the colony formation more potently than SAHA
IC50 (H157): 1040 ± 80 nM

IC50 (HDAC1): 1.72 nM
SMILES: O=C(CCCCCCCOc1cc(=O)oc2cc(OCc3ccc([N+](=O)[O-])cc3)ccc12)NO [Compound 14d, N-Hydroxy-8-((7-((4-nitrobenzyl)oxy)2-oxo-2H-chromen-4-yl)oxy)octanoic acid]

IC50 (H157): 1660 ± 140 nM
SMILES: O=C(CCCCCCC(=O)Nc1ccccc1)NO [Compound 1, vorinostat, reference compound]
cells in G2/M phase (MDA-MB-231 cells [1]; MDA-MB-231, 1 μM, 24 h): 11.02%
cell apoptosis (MDA-MB-231 cells [4]; MDA-MB-231, 1 µM): 7.3%
cell apoptosis (MDA-MB-231 cells [4]; MDA-MB-231, 2 µM): 12.6%

IC50 (HDAC1): 5.5 nM
SMILES: O=C(CCCCCCCOc1cc(=O)oc2cc(OCc3ccc(C(F)(F)F)cc3)ccc12)NO [Compound 14l]

IC50 (HDAC1): 3.02 nM
SMILES: O=C(CCCCCCCOc1cc(=O)oc2cc(OCc3ccc(Br)cc3)ccc12)NO [Compound 14k, N-Hydroxy-8-((7-((4-bromobenzyl)oxy)2-oxo-2H-chromen-4-yl)oxy)octanoic acid]

IC50 (HDAC1): 4.25 nM
SMILES: O=C(CCCCCCCOc1cc(=O)oc2cc(OCc3cccc(Cl)c3)ccc12)NO [Compound 14i, N-Hydroxy-8-((7-((3-chlorobenzyl)oxy)-2-oxo-2H-chromen-4-yl)oxy)octanoic acid]

IC50 (HDAC1): 2.5 nM
SMILES: Cc1ccc(COc2ccc3c(OCCCCCCCC(=O)NO)cc(=O)oc3c2)cc1 [Compound 14r, N-Hydroxy-8-((7-((4-methylbenzyl)oxy)2-oxo-2H-chromen-4-yl)oxy)octanoic acid]

SMILES: CCCCOc1ccc2c(OCCCCCCCC(=O)NO)cc(=O)oc2c1 [Compound 13b, N-Hydroxy-8-((7-butoxy-2-oxo-2H-benzopyran-4-yl)oxy)octanoic acid]
IC50 (MCF-7): 2930 ± 490 nM
IC50 (A549): 4090 ± 1540 nM
IC50 [2]: > 50000 nM
IC50 [3]: > 20000 nM
IC50 (MDA-MB-231): 1970 ± 560 nM
IC50 (H157): 1200 ± 170 nM

SMILES: COCCCOc1ccc2c(OCCCCCCCC(=O)NO)cc(=O)oc2c1 [Compound 13d, N-Hydroxy-8-((7-(3-methoxypropoxy)-2-oxo-2H-chromen-4-yl)oxy)octanoic acid]
IC50 (MCF-7): 5230 ± 1630 nM
IC50 (A549): 4110 ± 650 nM
IC50 [2]: > 20000 nM
IC50 [3]: > 20000 nM
IC50 (MDA-MB-231): 1700 ± 390 nM
IC50 (H157): 2360 ± 500 nM

SMILES: COCCOc1ccc2c(OCCCCCCCC(=O)NO)cc(=O)oc2c1 [Compound 13c, N-Hydroxy-8-((7-(2-methoxyethoxy)-2-oxo-2H-chromen-4-yl)oxy)octanoic acid]
acetylation level of histone H3 (acetyl-histone H3): increased the acetylation levels of histone H3 and H4 in a clearly dose-dependent manner
cell cycle arrest (MDA-MB-231 cells [1]): arrested MDA-MB-231 cells in a dose-dependent manner
IC50 [2]: > 100000 nM
IC50 (solid tumor cell lines): 360 to 2910 nM
IC50 [3]: > 100000 nM
cell apoptosis (MDA-MB-231 cells [4]; MDA-MB-231, 1 µM): 19.26%
cell apoptosis (MDA-MB-231 cells [4]; MDA-MB-231, 2 µM): 25.14%
acetylation level of histone H4 (acetyl-histone H4): increased the acetylation levels of histone H3 and H4 in a clearly dose-dependent manner
inhibition of colony formation (MDA-MB-231 cells [5]): significant inhibition of the colony formation more potently than SAHA
IC50 (H157): 590 ± 30 nM

IC50 (HDAC1): 3.22 nM
SMILES: O=C(CCCCCCCOc1cc(=O)oc2cc(OCc3ccc(F)cc3Cl)ccc12)NO [Compound 14o, N-Hydroxy-8-((7-((2-chloro-4-fluorobenzyl)oxy)2-oxo-2H-chromen-4-yl)oxy)octanoic acid]

IC50 (HDAC1): 1.97 nM
SMILES: O=C(CCCCCCCOc1cc(=O)oc2cc(OCc3cccc([N+](=O)[O-])c3)ccc12)NO [Compound 14c, N-Hydroxy-8-((7-((3-nitrobenzyl)oxy)-2-oxo-2H-chromen-4-yl)oxy)octanoic acid]

IC50 (HDAC1): 5.19 nM
SMILES: Cc1cccc(C)c1COc1ccc2c(OCCCCCCCC(=O)NO)cc(=O)oc2c1 [Compound 14s, N-Hydroxy-8-((7-((2,6-dimethylbenzyl)oxy)-2-oxo-2H-chromen-4-yl)oxy)octanoic acid]

SMILES: O=C(CCCCCCCOc1cc(=O)oc2cc(OCc3c(F)cccc3F)ccc12)NO [Compound 14m, N-Hydroxy-8-((7-((2,6-difluorobenzyl)oxy)2-oxo-2H-chromen-4-yl)oxy)octanoic acid]
IC50 (MCF-7): 6050 ± 1330 nM
IC50 (A549): 7580 ± 2050 nM
IC50 (MDA-MB-231): 1950 ± 290 nM
IC50 (H157): 4810 ± 800 nM

IC50 (HDAC1): 1.59 nM
SMILES: O=C(CCCCCCCOc1cc(=O)oc2cc(OCc3ccccc3[N+](=O)[O-])ccc12)NO [Compound 14b, N-Hydroxy-8-((7-((2-nitrobenzyl)oxy)-2-oxo-2H-chromen-4-yl)oxy)octanoic acid]
